# Data reported in patent US8642590B2, “Alkylcyclohexylethers of dihydrotetraazabenzoazulenes” (Hoffmann-La Roche Inc., priority 2008, dated 2014).
# Structures can show the parent of a compound that is named as a salt.
# Biological target: T1, human V1a receptor (Homo sapiens, UniProt P37288)
# T1 construct: expressed in transfected cells; host or cells: HEK293 cells, transiently transfected; cell membranes prepared
# Assay: human V1a receptor binding study (3H-Vasopressin, SPA beads, HEK293 membranes)
# Conditions: not given
# Procedure: The human V1a receptor was cloned by RT-PCR from total human liver RNA. The coding sequence was subcloned in an expression vector after sequencing to confirm the identity of the amplified sequence. […] Cell membranes were prepared from HEK293 cells transiently transfected with the expression vector and grown in 20 liter fermenters with the following protocol.
# 50 g of cells are resuspended in 30 ml freshly prepared ice cold Lysis buffer (50 mM HEPES, 1 mM EDTA, 10 mM magnesium dichloride adjusted to pH=7.4+complete cocktail of protease inhibitor (Roche Diagnostics)). Homogenized with Polytron for 1 min and sonicated on ice for 2×2 minutes at 80% intensity (Vibracell sonicator). The preparation is centrifuged 20 min at 500 g at 4° C., the pellet is discarded and the supernatant centrifuged 1 hour at 43,000 g at 4° C. (19,000 rpm). The pellet is resuspended in 12.5 ml Lysis buffer+12.5 ml Sucrose 20% and homogenized using a Polytron for 1-2 min. The protein concentration is determined by the Bradford method and aliquots are stored at −80° C. until use. For binding studies 60 mg Yttrium silicate SPA beads (Amersham) are mixed with an aliquot of membrane in binding buffer (50 mM Tris, 120 mM sodium chloride, 5 mM potassium chloride, 2 mM Calcium dichloride, 10 mM magnesium dichloride) for 15 minutes with mixing. 50 μl of bead/membrane mixture is then added to each well of a 96 well plate, followed by 50 μl of 4 nM 3H-Vasopressin (American Radiolabeled Chemicals). For total binding measurement 100 μl of binding buffer are added to the respective wells, for non-specific binding 100 μl of 8.4 mM cold vasopressin and for compound testing 100 μl of a serial dilution of each compound in 2% dimethyl sulfoxide. The plate is incubated 1 h at room temperature, centrifuged 1 min at 1000 g and counted on a Packard Top-Count. Non-specific binding counts are subtracted from each well and data is normalized to the maximum specific binding set at 100%. To calculate an IC 50 the curve is fitted using a non-linear regression model (XLfit) and the Ki is calculated using the Cheng-Prussoff equation.
# T1 sequence (P37288 whole entry): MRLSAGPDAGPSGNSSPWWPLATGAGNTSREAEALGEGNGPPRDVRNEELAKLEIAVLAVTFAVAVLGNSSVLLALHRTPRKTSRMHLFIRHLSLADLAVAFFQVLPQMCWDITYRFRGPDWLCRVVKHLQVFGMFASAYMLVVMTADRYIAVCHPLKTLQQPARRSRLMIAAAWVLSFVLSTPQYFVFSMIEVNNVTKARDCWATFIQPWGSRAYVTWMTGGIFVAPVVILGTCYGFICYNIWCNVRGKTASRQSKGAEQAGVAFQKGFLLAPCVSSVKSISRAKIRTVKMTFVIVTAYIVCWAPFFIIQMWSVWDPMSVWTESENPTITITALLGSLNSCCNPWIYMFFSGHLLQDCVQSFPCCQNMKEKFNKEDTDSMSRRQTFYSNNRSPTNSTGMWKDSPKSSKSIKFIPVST
row,SMILES,Ki
1,"CC(C)(C)OC(=O)N1Cc2cc(Cl)ccc2-n2c(nnc2[C@H]2CC[C@H](OC3COC3)CC2)C1 [Example 57, trans-8-Chloro-1-[4-(oxetan-3-yloxy)-cyclohexyl]-4H,6H-2,3,5,10b-tetraaza-benzo[e]azulene-5-carboxylic acid tert-butyl ester]",6.17 nM

# Same assay, conditions: membranes of HEK293 cells transiently transfected with human V1a receptor; 3H-Vasopressin; Ki calculated using the Cheng-Prussoff equation; read-out: pKi (hV1a) (converted)
row,SMILES,Ki
1,"CN1Cc2cc(Cl)ccc2-n2c(nnc2[C@H]2CC[C@H](OC3COC3)CC2)C1 [Example 58, trans-8-Chloro-5-methyl-1-[4-(oxetan-3-yloxy)-cyclohexyl]-5,6-dihydro-4H-2,3,5,10b-tetraaza-benzo[e]azulene]",46.8 nM
2,"CC(C)(C)OC(=O)N1Cc2cc(Cl)ccc2-n2c(nnc2[C@H]2CC[C@H](OC3CCOCC3)CC2)C1 [Example 59, trans-8-Chloro-1-[4-(tetrahydro-pyran-4-yloxy)-cyclohexyl]-4H,6H-2,3,5,10b-tetraaza-benzoazulene-5-carboxylic acid tert-butyl ester]",5.62 nM
3,"CC(C)(C)OC(=O)N1Cc2cc(Cl)ccc2-n2c(nnc2[C@H]2CC[C@@H](OC3CCOCC3)CC2)C1 [Example 60, cis-8-Chloro-1-[4-(tetrahydro-pyran-4-yloxy)-cyclohexyl]-4H,6H-2,3,5,10b-tetraaza-benzoazulene-5-carboxylic acid tert-butyl ester]",7.08 nM
4,"Clc1ccc2c(c1)CNCc1nnc([C@H]3CC[C@H](OC4CCOCC4)CC3)n1-2 [Example 61, trans-8-Chloro-1-[4-(tetrahydro-pyran-4-yloxy)-cyclohexyl]-5,6-dihydro-4H-2,3,5,10b-tetraaza-benzoazulene hydrochloride]",447 nM
5,"CN1Cc2cc(Cl)ccc2-n2c(nnc2[C@H]2CC[C@H](OC3CCOCC3)CC2)C1 [Example 62, trans-8-Chloro-5-methyl-1-[4-(tetrahydro-pyran-4-yloxy)-cyclohexyl]-5,6-dihydro-4H-2,3,5,10b-tetraaza-benzoazulene]",20 nM
6,"Clc1ccc2c(c1)CNCc1nnc([C@H]3CC[C@@H](OC4CCOCC4)CC3)n1-2 [Example 63, cis-8-Chloro-1-[4-(tetrahydro-pyran-4-yloxy)-cyclohexyl]-5,6-dihydro-4H-2,3,5,10b-tetraaza-benzoazulene hydrochloride]",288 nM
7,"CN1Cc2cc(Cl)ccc2-n2c(nnc2[C@H]2CC[C@@H](OC3CCOCC3)CC2)C1 [Example 64, cis-8-Chloro-5-methyl-1-[4-(tetrahydro-pyran-4-yloxy)-cyclohexyl]-5,6-dihydro-4H-2,3,5,10b-tetraaza-benzoazulene]",17 nM
8,"CC(C)(C)OC(=O)N1Cc2cc(Cl)ccc2-n2c(nnc2[C@H]2CC[C@H](OC(F)(F)F)CC2)C1 [Example 65, trans-8-Chloro-1-(4-trifluoromethoxy-cyclohexyl)-4H,6H-2,3,5,10b-tetraaza-benzo[e]azulene-5-carboxylic acid tert-butyl ester]",14.5 nM
9,"FC(F)(F)O[C@H]1CC[C@H](c2nnc3n2-c2ccc(Cl)cc2CNC3)CC1 [Example 66, trans-8-Chloro-1-(4-trifluoromethoxy-cyclohexyl)-5,6-dihydro-4H-2,3,5,10b-tetraaza-benzo[e]azulene hydrochloride]",195 nM
10,"CN1Cc2cc(Cl)ccc2-n2c(nnc2[C@H]2CC[C@H](OC(F)(F)F)CC2)C1 [Example 67, trans-8-Chloro-5-methyl-1-(4-trifluoromethoxy-cyclohexyl)-5,6-dihydro-4H-2,3,5,10b-tetraaza-benzo[e]azulene]",26.3 nM
11,"CC(C)(C)OC(=O)N1Cc2cc(Cl)ccc2-n2c(nnc2[C@H]2CC[C@H](OC(C)(C)C)CC2)C1 [Example 68, trans-1-(4-tert-Butoxy-cyclohexyl)-8-chloro-4H,6H-2,3,5,10b-tetraaza-benzo[e]azulene-5-carboxylic acid tert-butyl ester]",3.8 nM
